Test results as given in ChEMBL document CHEMBL1201862, “PubChem BioAssay data set” (2004).
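96-well plates; 48 h exposure; 5 concentrations. Endpoints by linear interpolation between flanking doses. Not reached: highest tested concentration assigned. Here, GI50 denotes the concentration required for 50% inhibition of growth.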 Active and inactive are the calls of the source. Cut-off read from the data, not from the text of the source: active = GI50 up to about 1.1 µM and inactive = higher.

Tests used:
Test in all cases: growth of human tumour cells (NCI), 48 h
[1] = tested on: SK-MEL-5
[2] = tested on: MOLT-4
[3] = tested on: COLO 205
[4] = tested on: SF-268
[5] = tested on: Hs-578T
[6] = tested on: ACHN
[7] = tested on: NCI-H226
[8] = tested on: SR
[9] = tested on: Malme-3M
[10] = tested on: CCRF-CEM
[11] = tested on: RPMI-8226
[12] = tested on: NCI-H460
[13] = tested on: 786-0
[14] = tested on: PC-3
[15] = tested on: DU-145
[16] = tested on: HCT-15
[17] = tested on: OVCAR-8
[18] = tested on: K562
[19] = tested on: IGROV-1
[20] = tested on: SK-MEL-28
[21] = tested on: A549
[22] = tested on: SNB-19
[23] = tested on: EKVX
[24] = tested on: HT-29
[25] = tested on: MDA-MB-435
[26] = tested on: RXF 393
[27] = tested on: LOX IMVI
[28] = tested on: OVCAR-3
[29] = tested on: NCI-H522
[30] = tested on: SNB-75
[31] = tested on: SW-620
[32] = tested on: UO-31
[33] = tested on: HL-60
[34] = tested on: NCI/ADR-RES
[35] = tested on: BT-549
[36] = tested on: OVCAR-4
[37] = tested on: NCI-H23
[38] = tested on: SF-295
[39] = tested on: SN12C
[40] = tested on: HCC 2998
[41] = tested on: T47D
[42] = tested on: UACC-257
[43] = tested on: CAKI-1
[44] = tested on: UACC-62
[45] = tested on: SF-539
[46] = tested on: HCT-116
[47] = tested on: HOP-62
[48] = tested on: MCF7
[49] = tested on: HOP-92
[50] = tested on: M14
[51] = tested on: OVCAR-5
[52] = tested on: MDA-N
[53] = tested on: A498
[54] = tested on: U-251
[55] = tested on: KM12
[56] = tested on: TK-10
[57] = tested on: SK-MEL-2
[58] = tested on: SK-OV-3
[59] = tested on: MDA-MB-231

In the case of Cc1ccc(C(=O)O)c(/C=C2\Cc3ccc(C)cc3C2=O)c1, the GI50 [1] is reported as 25.1 µM (inactive), the GI50 [2] is reported as 33.6 µM (inactive) and the GI50 [3] is reported as 51.4 µM (inactive). The GI50 [4] was 41 µM (inactive), the GI50 [5] was 64.3 µM (inactive) and the GI50 [6] was 55.2 µM (inactive). The GI50 [7] was 28.2 µM (inactive), the GI50 [8] was 32.5 µM (inactive) and the GI50 [9] was 95.9 µM (inactive). For the same molecule, the GI50 [10] was 51.3 µM (inactive), the GI50 [11] was 19.5 µM (inactive) and the GI50 [12] was 56.4 µM (inactive). For the same molecule, the GI50 [13] was 62.2 µM (inactive), the GI50 [14] was 48.8 µM (inactive) and the GI50 [15] was 79.8 µM (inactive). The GI50 [16] was 56.4 µM, the GI50 [17] was 61.5 µM (inactive) and the GI50 [18] was 39.9 µM (inactive). For the same molecule, the GI50 [19] was > 100 µM (inactive), the GI50 [20] was 78.9 µM (inactive) and the GI50 [21] was 91.2 µM (inactive). The GI50 [22] was 45.1 µM (inactive), the GI50 [23] was 98.9 µM (inactive) and the GI50 [24] was 34.8 µM (inactive). The GI50 [25] was 38 µM (inactive), the GI50 [26] was 42.3 µM (inactive) and the GI50 [27] was 33.3 µM (inactive). The GI50 [28] was 31.8 µM (inactive), the GI50 [29] was 96.8 µM (inactive) and the GI50 [30] was 34 µM (inactive). For the same molecule, the GI50 [31] was > 100 µM (inactive), the GI50 [32] was 62.1 µM (inactive) and the GI50 [33] was 28.6 µM (inactive). For the same molecule, the GI50 [34] was 71.8 µM (inactive), the GI50 [35] was 12.9 µM (inactive) and the GI50 [36] was 50.5 µM (inactive). The GI50 [37] was 75.3 µM (inactive), the GI50 [38] was 38.1 µM (inactive) and the GI50 [39] was 40.6 µM (inactive). For the same molecule, the GI50 [40] was 38.9 µM (inactive), the GI50 [41] was 92 µM (inactive) and the GI50 [42] was 78.5 µM (inactive). For the same molecule, the GI50 [43] was 44.3 µM (inactive), the GI50 [44] was 69.2 µM (inactive) and the GI50 [45] was 20 µM (inactive). For the same molecule, the GI50 [46] was 44.2 µM (inactive), the GI50 [47] was 44.2 µM (inactive) and the GI50 [48] was 63.5 µM (inactive). The GI50 [49] was > 100 µM (inactive), the GI50 [50] was > 100 µM (inactive) and the GI50 [51] was 28.4 µM (inactive). For the same molecule, the GI50 [52] was 37.8 µM (inactive), the GI50 [53] was 65.9 µM (inactive) and the GI50 [54] was 34 µM (inactive). The GI50 [55] was 61.4 µM (inactive), the GI50 [56] was > 100 µM (inactive) and the GI50 [57] was 32 µM (inactive).
COc1ccc2c(c1)CCCN1CCc3cc(OC)c(OC)cc3C21 (stereo not given) was tested, and the GI50 [1] was > 100 µM (inactive), the GI50 [2] was 50.5 µM (inactive) and the GI50 [3] was > 100 µM (inactive). The GI50 [4] was > 100 µM (inactive), the GI50 [6] was 84.1 µM (inactive) and the GI50 [7] was > 100 µM (inactive). The GI50 [8] was > 100 µM (inactive), the GI50 [9] was > 100 µM (inactive) and the GI50 [10] was > 100 µM (inactive). The GI50 [11] was 71.4 µM (inactive), the GI50 [13] was > 100 µM (inactive) and the GI50 [14] was > 100 µM (inactive). The GI50 [15] was > 100 µM (inactive), the GI50 [16] was > 100 µM and the GI50 [17] was > 100 µM (inactive). For the same molecule, the GI50 [18] was 61.7 µM (inactive), the GI50 [19] was > 100 µM (inactive) and the GI50 [20] was > 100 µM (inactive). The GI50 [21] was > 100 µM (inactive), the GI50 [22] was > 100 µM (inactive) and the GI50 [23] was > 100 µM (inactive). The GI50 [24] was 47.9 µM (inactive), the GI50 [25] was > 100 µM (inactive) and the GI50 [27] was 77.1 µM (inactive). The GI50 [28] was > 100 µM (inactive), the GI50 [30] was > 100 µM (inactive) and the GI50 [31] was > 100 µM (inactive). For the same molecule, the GI50 [32] was 25.5 µM (inactive), the GI50 [33] was 41.1 µM (inactive) and the GI50 [58] was > 100 µM (inactive). The GI50 [34] was 21.8 µM (inactive), the GI50 [35] was 4.09 µM (inactive) and the GI50 [38] was 46.5 µM (inactive). For the same molecule, the GI50 [39] was > 100 µM (inactive), the GI50 [40] was 45.7 µM (inactive) and the GI50 [41] was > 100 µM (inactive). For the same molecule, the GI50 [42] was > 100 µM (inactive), the GI50 [43] was > 100 µM (inactive) and the GI50 [44] was > 100 µM (inactive). For the same molecule, the GI50 [45] was 35.5 µM (inactive), the GI50 [46] was 76 µM (inactive) and the GI50 [47] was > 100 µM (inactive). For the same molecule, the GI50 [48] was > 100 µM (inactive), the GI50 [59] was > 100 µM (inactive) and the GI50 [50] was > 100 µM (inactive). The GI50 [51] was > 100 µM (inactive), the GI50 [52] was > 100 µM (inactive) and the GI50 [54] was > 100 µM (inactive). For the same molecule, the GI50 [55] was > 100 µM (inactive) and the GI50 [56] was > 100 µM (inactive).
In the case of O=C1c2c(Br)sc(Br)c2C(=O)C1(O)O, the GI50 [1] is reported as 19.9 µM (inactive), the GI50 [2] is reported as 33.6 µM (inactive) and the GI50 [3] is reported as 23.4 µM (inactive). The GI50 [4] was > 100 µM (inactive), the GI50 [5] was > 100 µM (inactive) and the GI50 [6] was 31.8 µM (inactive). The GI50 [7] was > 100 µM (inactive), the GI50 [8] was 24.1 µM (inactive) and the GI50 [9] was 19.3 µM (inactive). For the same molecule, the GI50 [10] was 27.7 µM (inactive), the GI50 [11] was 46.6 µM (inactive) and the GI50 [12] was > 100 µM (inactive). The GI50 [13] was 34 µM (inactive), the GI50 [14] was 22.8 µM (inactive) and the GI50 [15] was > 100 µM (inactive). The GI50 [16] was 27.1 µM, the GI50 [17] was 35.7 µM (inactive) and the GI50 [18] was 27.7 µM (inactive). For the same molecule, the GI50 [19] was > 100 µM (inactive), the GI50 [20] was > 100 µM (inactive) and the GI50 [21] was > 100 µM (inactive). The GI50 [22] was > 100 µM (inactive), the GI50 [23] was 53.6 µM (inactive) and the GI50 [24] was 39.3 µM (inactive). The GI50 [25] was 19.4 µM (inactive), the GI50 [26] was 19.1 µM (inactive) and the GI50 [27] was > 100 µM (inactive). The GI50 [28] was 19.4 µM (inactive), the GI50 [29] was 18.8 µM (inactive) and the GI50 [30] was 36.4 µM (inactive). The GI50 [31] was 35.6 µM (inactive), the GI50 [32] was 34.2 µM (inactive) and the GI50 [33] was 41 µM (inactive). For the same molecule, the GI50 [58] was > 100 µM (inactive), the GI50 [34] was > 100 µM (inactive) and the GI50 [35] was 19.3 µM (inactive). For the same molecule, the GI50 [36] was 18.3 µM (inactive), the GI50 [37] was 33.4 µM (inactive) and the GI50 [38] was > 100 µM (inactive). For the same molecule, the GI50 [39] was 98.9 µM (inactive), the GI50 [40] was > 100 µM (inactive) and the GI50 [41] was 21.8 µM (inactive). For the same molecule, the GI50 [42] was 19.8 µM (inactive), the GI50 [43] was 18.6 µM (inactive) and the GI50 [44] was 76.2 µM (inactive). The GI50 [45] was 20.8 µM (inactive), the GI50 [46] was 19.7 µM (inactive) and the GI50 [47] was > 100 µM (inactive). For the same molecule, the GI50 [48] was 44.5 µM (inactive), the GI50 [49] was 17.9 µM (inactive) and the GI50 [50] was 19.2 µM (inactive). The GI50 [51] was 23.7 µM (inactive), the GI50 [52] was 36.8 µM (inactive) and the GI50 [53] was > 100 µM (inactive). For the same molecule, the GI50 [54] was 39.7 µM (inactive), the GI50 [55] was > 100 µM (inactive) and the GI50 [56] was 72.3 µM (inactive). The GI50 [57] was 29.8 µM (inactive).
